Laboratory results: article PMC7714403 (JCI Insight, 2020)
Like-named read-outs stand apart in the source and are kept apart here.

How the values were obtained:
Test in all cases: KiNativ, MOLM13 live cells
Assay type in all cases: cell-based
[1] = molecular target: FGR (Homo sapiens, UniProt P09769); conditions: MOLM-13; 100 nM, 2 hours; Activation Loop; read-out: Inhibition vs DMSO
Experimental: (§1) Samples were analyzed by KiNativ in situ kinase profiling by ActivX Biosciences.

[2] = molecular target: PIP4K2B (Homo sapiens, UniProt P78356); conditions: MOLM-13; 100 nM, 2 hours; ATP; read-out: Inhibition vs DMSO
Experimental: as §1

[3] = molecular target: PKN1 (Homo sapiens, UniProt Q16512); conditions: MOLM-13; 100 nM, 2 hours; Lys2; read-out: Inhibition vs DMSO
Experimental: as §1

[4] = molecular target: ACK (Homo sapiens, UniProt Q07912); conditions: MOLM-13; 100 nM, 2 hours; Lys1; read-out: Inhibition vs DMSO
Sequence of ACK (Q07912 whole entry): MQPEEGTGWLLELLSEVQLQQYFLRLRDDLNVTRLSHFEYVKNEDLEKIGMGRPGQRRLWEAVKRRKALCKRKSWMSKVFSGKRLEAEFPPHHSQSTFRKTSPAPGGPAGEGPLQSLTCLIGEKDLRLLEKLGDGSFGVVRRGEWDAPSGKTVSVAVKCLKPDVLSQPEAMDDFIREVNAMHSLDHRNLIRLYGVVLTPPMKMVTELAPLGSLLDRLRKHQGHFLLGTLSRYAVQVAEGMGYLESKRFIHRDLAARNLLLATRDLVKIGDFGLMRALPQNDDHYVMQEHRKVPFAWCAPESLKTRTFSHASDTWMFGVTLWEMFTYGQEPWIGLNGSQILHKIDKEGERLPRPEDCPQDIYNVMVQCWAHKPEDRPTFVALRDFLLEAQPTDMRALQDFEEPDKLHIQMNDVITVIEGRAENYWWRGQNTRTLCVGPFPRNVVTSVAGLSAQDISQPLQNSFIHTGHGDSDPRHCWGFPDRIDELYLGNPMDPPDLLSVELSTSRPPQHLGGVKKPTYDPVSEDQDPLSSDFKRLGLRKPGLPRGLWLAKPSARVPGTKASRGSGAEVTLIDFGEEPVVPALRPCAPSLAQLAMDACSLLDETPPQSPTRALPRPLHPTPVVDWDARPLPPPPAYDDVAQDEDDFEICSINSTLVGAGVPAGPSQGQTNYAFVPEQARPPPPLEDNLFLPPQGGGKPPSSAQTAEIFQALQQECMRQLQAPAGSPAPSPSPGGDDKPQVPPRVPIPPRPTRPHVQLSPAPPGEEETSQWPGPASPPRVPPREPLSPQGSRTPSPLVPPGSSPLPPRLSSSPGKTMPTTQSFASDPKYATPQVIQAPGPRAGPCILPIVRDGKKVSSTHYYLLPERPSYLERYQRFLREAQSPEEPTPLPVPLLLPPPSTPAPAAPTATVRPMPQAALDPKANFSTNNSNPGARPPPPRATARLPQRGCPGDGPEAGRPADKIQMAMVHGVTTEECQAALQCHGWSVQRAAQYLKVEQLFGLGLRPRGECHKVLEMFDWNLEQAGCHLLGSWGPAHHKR
Experimental: as §1

[5] = molecular target: CaMK2g (Homo sapiens, UniProt Q13555); conditions: MOLM-13; 100 nM, 2 hours; Lys1; read-out: Inhibition vs DMSO
Experimental: as §1

[6] = molecular target: TAO2 (Homo sapiens, UniProt Q9UL54); conditions: MOLM-13; 100 nM, 2 hours; Lys2; read-out: Inhibition vs DMSO
Experimental: as §1

[7] = molecular target: FAM20B (Homo sapiens, UniProt O75063); conditions: MOLM-13; 100 nM, 2 hours; ATP; read-out: Inhibition vs DMSO
Experimental: as §1

[8] = molecular target: FER (Homo sapiens, UniProt P16591); conditions: MOLM-13, 2 h, 100 nM
Sequence of FER (P16591 whole entry): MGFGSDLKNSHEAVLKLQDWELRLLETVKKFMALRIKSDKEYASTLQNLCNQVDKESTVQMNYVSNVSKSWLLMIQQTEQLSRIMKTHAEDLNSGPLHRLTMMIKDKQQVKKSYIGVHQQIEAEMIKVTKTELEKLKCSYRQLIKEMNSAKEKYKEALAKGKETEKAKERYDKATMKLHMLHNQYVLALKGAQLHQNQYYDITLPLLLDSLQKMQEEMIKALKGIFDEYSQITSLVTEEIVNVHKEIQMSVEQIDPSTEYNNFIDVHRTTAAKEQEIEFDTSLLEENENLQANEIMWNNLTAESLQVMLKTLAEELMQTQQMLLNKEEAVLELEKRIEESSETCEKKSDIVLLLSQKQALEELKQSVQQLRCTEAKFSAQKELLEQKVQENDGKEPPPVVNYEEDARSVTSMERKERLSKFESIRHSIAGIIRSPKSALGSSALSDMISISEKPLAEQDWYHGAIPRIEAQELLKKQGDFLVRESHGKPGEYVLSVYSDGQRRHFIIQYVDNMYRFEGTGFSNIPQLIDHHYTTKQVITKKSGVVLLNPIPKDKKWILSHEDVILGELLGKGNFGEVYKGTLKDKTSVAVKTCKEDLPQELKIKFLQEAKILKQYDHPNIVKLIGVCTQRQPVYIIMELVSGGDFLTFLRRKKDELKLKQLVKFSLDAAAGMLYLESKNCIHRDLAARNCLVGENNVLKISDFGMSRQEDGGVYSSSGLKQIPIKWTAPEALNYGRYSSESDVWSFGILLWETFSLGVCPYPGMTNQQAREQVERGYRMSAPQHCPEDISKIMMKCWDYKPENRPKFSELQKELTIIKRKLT
Experimental: as §1

[9] = molecular target: T1, PIP4K2C (Homo sapiens, UniProt Q8TBX8); conditions: MOLM-13, 2 h, 100 nM, ATP, read-out: Inhibition vs DMSO
T1 sequence (Q8TBX8 1-421): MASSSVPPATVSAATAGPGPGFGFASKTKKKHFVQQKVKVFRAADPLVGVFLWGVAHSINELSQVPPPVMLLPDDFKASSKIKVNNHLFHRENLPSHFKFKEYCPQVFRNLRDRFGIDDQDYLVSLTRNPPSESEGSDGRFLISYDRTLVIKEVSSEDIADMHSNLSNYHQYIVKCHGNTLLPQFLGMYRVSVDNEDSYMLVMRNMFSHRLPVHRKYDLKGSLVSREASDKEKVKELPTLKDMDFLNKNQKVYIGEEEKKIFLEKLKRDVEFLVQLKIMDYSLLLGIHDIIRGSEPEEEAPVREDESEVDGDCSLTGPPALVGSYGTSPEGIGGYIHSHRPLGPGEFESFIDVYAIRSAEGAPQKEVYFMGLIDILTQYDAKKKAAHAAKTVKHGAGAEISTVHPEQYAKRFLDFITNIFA
Experimental: as §1

[10] = molecular target: T2, IRAK4 (Homo sapiens, UniProt Q9NWZ3); conditions: 100 nM, 2 hours
T2 sequence (Q9NWZ3 1-460): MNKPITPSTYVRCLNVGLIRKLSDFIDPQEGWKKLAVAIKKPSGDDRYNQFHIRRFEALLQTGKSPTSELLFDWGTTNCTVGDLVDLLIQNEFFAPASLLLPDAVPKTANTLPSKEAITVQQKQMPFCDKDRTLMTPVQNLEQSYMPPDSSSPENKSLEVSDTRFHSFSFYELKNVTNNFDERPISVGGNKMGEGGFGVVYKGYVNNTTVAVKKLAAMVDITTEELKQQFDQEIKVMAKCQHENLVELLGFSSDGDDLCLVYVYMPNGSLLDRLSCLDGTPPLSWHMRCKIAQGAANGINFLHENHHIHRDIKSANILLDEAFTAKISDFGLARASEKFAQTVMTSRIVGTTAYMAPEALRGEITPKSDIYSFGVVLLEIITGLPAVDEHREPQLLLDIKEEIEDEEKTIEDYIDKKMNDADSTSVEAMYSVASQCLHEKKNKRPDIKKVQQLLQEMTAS
Experimental: as §1

[11] = molecular target: Erk5 (Homo sapiens, UniProt Q13164); conditions: MOLM-13; 100 nM, 2 hours; Lys2; read-out: Inhibition vs DMSO
Experimental: as §1

[12] = molecular target: NEK7 (Homo sapiens, UniProt Q8TDX7); conditions: MOLM-13; 100 nM, 2 hours; Lys1; read-out: Inhibition vs DMSO
Sequence of NEK7 (Q8TDX7 whole entry): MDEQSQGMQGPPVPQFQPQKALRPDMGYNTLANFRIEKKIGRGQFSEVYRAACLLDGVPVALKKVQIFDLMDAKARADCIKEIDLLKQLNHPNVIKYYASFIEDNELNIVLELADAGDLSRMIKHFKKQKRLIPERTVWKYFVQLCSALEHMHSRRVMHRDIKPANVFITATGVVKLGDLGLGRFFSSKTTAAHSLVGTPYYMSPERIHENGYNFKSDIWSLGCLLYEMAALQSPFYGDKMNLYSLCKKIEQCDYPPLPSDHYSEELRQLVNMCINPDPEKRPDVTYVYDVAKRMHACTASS
Experimental: as §1

[13] = molecular target: CaMK2d (Homo sapiens, UniProt Q13557); conditions: MOLM-13; 100 nM, 2 hours; Lys1; read-out: Inhibition vs DMSO
Experimental: as §1

[14] = molecular target: T3, STLK5 (Homo sapiens, UniProt Q7RTN6); conditions: MOLM-13, 2 h, 100 nM
T3 sequence (Q7RTN6 1-431): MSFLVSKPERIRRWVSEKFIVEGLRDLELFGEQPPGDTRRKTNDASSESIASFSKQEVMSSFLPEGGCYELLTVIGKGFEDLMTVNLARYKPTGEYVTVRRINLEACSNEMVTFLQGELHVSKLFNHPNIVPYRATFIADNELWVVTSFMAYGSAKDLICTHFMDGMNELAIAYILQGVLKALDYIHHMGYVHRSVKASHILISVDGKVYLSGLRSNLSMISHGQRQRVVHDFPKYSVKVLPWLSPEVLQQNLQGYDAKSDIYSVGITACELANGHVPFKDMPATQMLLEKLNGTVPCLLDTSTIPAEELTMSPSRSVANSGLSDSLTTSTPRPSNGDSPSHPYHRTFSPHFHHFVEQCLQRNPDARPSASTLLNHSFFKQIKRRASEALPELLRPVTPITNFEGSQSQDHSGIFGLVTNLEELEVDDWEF
Experimental: as §1

[15] = molecular target: CaMK1a (Homo sapiens, UniProt Q14012); conditions: MOLM-13; 100 nM, 2 hours; Lys1; read-out: Inhibition vs DMSO
Sequence of CaMK1a (Q14012 whole entry): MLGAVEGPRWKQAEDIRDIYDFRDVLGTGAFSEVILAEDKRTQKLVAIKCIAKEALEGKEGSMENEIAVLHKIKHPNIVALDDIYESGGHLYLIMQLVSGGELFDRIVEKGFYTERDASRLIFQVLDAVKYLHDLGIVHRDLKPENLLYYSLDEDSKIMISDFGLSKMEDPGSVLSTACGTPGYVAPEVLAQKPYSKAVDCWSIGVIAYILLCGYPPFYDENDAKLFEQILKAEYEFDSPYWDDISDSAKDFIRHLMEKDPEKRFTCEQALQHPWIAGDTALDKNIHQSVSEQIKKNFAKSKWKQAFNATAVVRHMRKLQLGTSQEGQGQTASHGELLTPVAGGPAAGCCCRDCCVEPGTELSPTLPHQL
Experimental: as §1

[16] = molecular target: T4, RSK2 domain1 (Homo sapiens, UniProt P51812); conditions: MOLM-13, 2 h, 100 nM
T4 construct: RSK2 domain1
T4 sequence (P51812 whole entry, the tested form may be a part): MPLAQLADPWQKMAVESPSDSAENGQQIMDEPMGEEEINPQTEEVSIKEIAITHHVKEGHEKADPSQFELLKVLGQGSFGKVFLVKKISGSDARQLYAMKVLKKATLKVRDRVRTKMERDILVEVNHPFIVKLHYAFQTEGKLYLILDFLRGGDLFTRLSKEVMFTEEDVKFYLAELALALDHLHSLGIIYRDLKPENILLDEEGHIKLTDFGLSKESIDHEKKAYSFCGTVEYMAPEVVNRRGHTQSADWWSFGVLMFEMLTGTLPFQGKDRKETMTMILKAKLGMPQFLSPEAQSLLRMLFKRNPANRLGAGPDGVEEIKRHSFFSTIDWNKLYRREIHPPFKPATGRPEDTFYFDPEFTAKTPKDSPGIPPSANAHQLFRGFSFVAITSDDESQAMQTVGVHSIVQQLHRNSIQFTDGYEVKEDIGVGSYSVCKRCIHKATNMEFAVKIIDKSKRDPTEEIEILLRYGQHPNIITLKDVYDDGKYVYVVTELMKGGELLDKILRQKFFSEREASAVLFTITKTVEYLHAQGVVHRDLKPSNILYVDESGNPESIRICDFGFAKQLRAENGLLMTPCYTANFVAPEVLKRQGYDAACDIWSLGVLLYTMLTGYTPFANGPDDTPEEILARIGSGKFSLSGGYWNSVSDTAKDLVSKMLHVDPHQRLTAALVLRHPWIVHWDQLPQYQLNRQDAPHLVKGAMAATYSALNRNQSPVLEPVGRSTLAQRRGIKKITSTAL
Experimental: as §1

[17] = molecular target: p70S6K (Homo sapiens, UniProt P23443); conditions: MOLM-13; 100 nM, 2 hours; Lys2; read-out: Inhibition vs DMSO
Experimental: as §1

[18] = molecular target: MAP3K2 (Homo sapiens, UniProt Q9Y2U5); conditions: MOLM-13; 100 nM, 2 hours; Lys1; read-out: Inhibition vs DMSO
Sequence of MAP3K2 (Q9Y2U5 whole entry): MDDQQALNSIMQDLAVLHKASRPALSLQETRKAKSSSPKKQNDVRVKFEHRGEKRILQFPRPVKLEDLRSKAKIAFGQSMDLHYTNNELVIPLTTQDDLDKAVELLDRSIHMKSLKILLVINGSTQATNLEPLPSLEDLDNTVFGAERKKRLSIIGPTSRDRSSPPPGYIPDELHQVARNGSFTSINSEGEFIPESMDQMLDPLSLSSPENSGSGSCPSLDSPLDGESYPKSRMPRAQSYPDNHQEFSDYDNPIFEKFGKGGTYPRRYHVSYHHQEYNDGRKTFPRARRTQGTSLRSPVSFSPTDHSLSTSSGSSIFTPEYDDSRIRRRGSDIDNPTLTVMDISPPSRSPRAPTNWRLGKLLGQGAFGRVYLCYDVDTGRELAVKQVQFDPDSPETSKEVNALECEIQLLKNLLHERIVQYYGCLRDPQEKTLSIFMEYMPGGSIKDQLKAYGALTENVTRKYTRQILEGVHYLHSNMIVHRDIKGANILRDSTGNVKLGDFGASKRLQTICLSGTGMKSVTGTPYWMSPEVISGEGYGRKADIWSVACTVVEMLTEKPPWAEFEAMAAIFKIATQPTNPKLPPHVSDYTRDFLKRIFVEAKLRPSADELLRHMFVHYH
Experimental: as §1

[19] = molecular target: RIPK3 (Homo sapiens, UniProt Q9Y572); conditions: MOLM-13; 100 nM, 2 hours; Lys2; read-out: Inhibition vs DMSO
Experimental: as §1

[20] = molecular target: CSK (Homo sapiens, UniProt P41240); conditions: 100 nM, 2 hours; Activation Loop
Experimental: as §1

[21] = molecular target: T5, JAK1 domain1 (Homo sapiens, UniProt P23458); conditions: 100 nM, 2 hours; Activation Loop
T5 construct: JAK1 domain1
T5 sequence (P23458 whole entry, the tested form may be a part): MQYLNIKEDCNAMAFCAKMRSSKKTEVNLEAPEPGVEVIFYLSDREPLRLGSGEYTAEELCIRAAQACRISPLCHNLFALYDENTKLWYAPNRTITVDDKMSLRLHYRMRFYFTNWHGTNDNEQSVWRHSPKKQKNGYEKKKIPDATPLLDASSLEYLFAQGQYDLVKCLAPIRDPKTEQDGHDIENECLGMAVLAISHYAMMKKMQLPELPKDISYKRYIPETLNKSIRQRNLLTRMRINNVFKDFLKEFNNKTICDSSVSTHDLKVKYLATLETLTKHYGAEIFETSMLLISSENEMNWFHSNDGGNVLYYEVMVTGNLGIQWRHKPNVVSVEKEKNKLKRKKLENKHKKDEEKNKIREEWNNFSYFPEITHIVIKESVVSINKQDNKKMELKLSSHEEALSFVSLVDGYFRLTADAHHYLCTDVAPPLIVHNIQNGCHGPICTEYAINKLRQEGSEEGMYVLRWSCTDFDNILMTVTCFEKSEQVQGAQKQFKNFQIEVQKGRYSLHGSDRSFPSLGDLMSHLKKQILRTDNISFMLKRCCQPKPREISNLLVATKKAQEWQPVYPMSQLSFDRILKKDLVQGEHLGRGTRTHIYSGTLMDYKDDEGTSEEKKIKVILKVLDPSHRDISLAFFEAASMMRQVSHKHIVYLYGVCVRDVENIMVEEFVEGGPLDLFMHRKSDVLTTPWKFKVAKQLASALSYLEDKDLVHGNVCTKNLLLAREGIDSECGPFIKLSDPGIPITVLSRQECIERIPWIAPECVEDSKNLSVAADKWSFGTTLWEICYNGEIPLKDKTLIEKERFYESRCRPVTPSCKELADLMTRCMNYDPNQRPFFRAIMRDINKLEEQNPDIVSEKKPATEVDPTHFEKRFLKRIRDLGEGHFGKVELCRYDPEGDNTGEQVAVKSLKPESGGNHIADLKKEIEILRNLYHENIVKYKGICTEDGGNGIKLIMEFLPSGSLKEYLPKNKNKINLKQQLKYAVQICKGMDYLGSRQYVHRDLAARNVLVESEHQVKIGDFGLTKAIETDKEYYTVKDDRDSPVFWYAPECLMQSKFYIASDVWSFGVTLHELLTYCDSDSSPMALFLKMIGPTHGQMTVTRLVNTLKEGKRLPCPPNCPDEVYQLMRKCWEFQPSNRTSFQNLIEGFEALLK
Experimental: as §1

[22] = Activation Loop, read-out: Inhibition vs DMSO
[23] = Lys2, read-out: Inhibition vs DMSO

Q: Which results are given for CN1CCN(Cc2ccc(Nc3ncc(Cl)c(Nc4ccccc4S(=O)(=O)N(C)C)n3)cc2)CC1 [TP-0903]?
A: inhibition at 0.1 µM [1]: -35.3%; inhibition at 0.1 µM [2]: -16.2%; inhibition at 0.1 µM [3]: -25.2%; inhibition at 0.1 µM [4]: 44.5%; inhibition at 0.1 µM [5]: 25.8%; inhibition at 0.1 µM [6]: 10.8%; inhibition at 0.1 µM [7]: -5%; inhibition at 0.1 µM [8, 22]: 43.4%; inhibition at 0.1 µM ([8]; Lys1, read-out: Inhibition vs DMSO): 19.2%; inhibition at 0.1 µM ([9]; TLVIKEVSSEDIADMHSNLSNYHQYIVK): -26%; inhibition at 0.1 µM ([9]; VKELPTLKDMDFLNK): -26.5%; Inhibition vs DMSO ([10]; Lys1): 13.2%; Inhibition vs DMSO ([10]; Lys2): 18.7%; inhibition at 0.1 µM [11]: 84.9%; inhibition at 0.1 µM [12]: -26%; inhibition at 0.1 µM [13]: 7.5%; inhibition at 0.1 µM [14, 22]: 4.2%; inhibition at 0.1 µM [14, 23]: -19%; inhibition at 0.1 µM [15]: 1.3%; inhibition at 0.1 µM [16, 22]: 22.7%; inhibition at 0.1 µM [16, 23]: -0.9%; inhibition at 0.1 µM [17]: -32.8%; inhibition at 0.1 µM [18]: -7.5%; inhibition at 0.1 µM [19]: 6.4%; Inhibition vs DMSO [20]: -5.0%; Inhibition vs DMSO [21]: 82.7%
